Measured values as given in patent publication US20260091136A1, “USING ENHO GENE THERAPY TO TREAT CARDIOMETABOLIC DISEASE” (University of Pittsburgh-of the Commonwealth System of …, priority 2023, published 2026).
Entries after “also recorded” stand apart in the source; their conditions may differ.

Key:
HFpEF mice = experiment: Heart, lung and liver mass after four weeks of Adropin in HFpEF mice (Example 1); type: in vivo
Experimental: Administration of Recombinant Adropin. Mice received low-fat chow or HFpEF diet for 10 weeks. For the following 4 weeks, the mice were maintained on respective diets and received daily injections of recombinant Adropin. Body weight was measured every day during the four weeks of treatment.

[1] = In vivo stability of recombinant Adropin (clearance from circulation); conditions: within 1 hour
[2] = test system: hearts from control HFpEF and Adropin treated HFpEF mice; experiment: Bulk RNA sequencing of hearts, HFpEF vs HFpEF+Adropin; type: in vivo, C57BL/6J mice; conditions: heart bulk RNA-seq
Excerpt: Animal Care and Use. Male C57BL/6J 8-week-old mice were obtained from the Jackson Laboratory and maintained on chow for 4 weeks to acclimate to their new environment. Animals were housed in the University of Pittsburgh animal facility under standard conditions with ad libitum access to water and food and maintained on a constant 12-hour light/dark cycle. At 12 weeks of age, the mice were exposed to normal chow (Chow; 60% carbohydrate, 26% protein, 14% fat), or a combination of high-fat diet (HFD; 20% carbohydrate, 20% protein, 60% fat) plus No-nitro-L-arginine methyl ester (L-NAME: 0.5 g/L) supplemented in their drinking water after adjusting the pH to 7.4 with 1N NaOH to induce HFpEF [10]. For cohort 1, the mice were subject to the HFpEF diet for 15 weeks. For cohort 2, after 8 weeks of diet, mice were randomly assigned to a control or treatment group receiving daily intraperitoneal injections of either vehicle or recombinant adropin at 450 nmol/kg animal weight prepared in PBS with 0.1% BSA for the remaining 5 weeks of the study. L-NAME supplemented drinking water was changed weekly and adropin was made fresh and sterile filtered before each use.
Transcriptomics. Total RNA was isolated from myocardial LV and hepatic tissue using the RNeasy Plus Mini Kit. Approximately 2 μg RNA was used for bulk RNA sequencing performed by Azenta/GENEWIZ based on company recommendations to identify differential gene expression patterns between the experimental groups.

Adropin: recombinant Adropin peptide hormone encoded by the ENHO gene; full-length (SEQ ID NO: 1) or cleaved product of amino acids 34-76 (SEQ ID NO: 2) (CHSRSADVDSLSESSPNSSPGPCPEKAPPPQKPSHEGSYLLQP)
lung or liver mass (HFpEF mice; after 4 weeks): no differences were observed
average LV mass (FIG. 3A; cardiac hypertrophy) (HFpEF mice; following 4 weeks of Adropin, vs HFpEF mice without treatment): lower; also recorded: reduces
peptide cleared from circulation [1]: 96%
expression of extracellular matrix remodeling/fibrosis (e.g. Comp, Col12a1) and natriuretic peptide (e.g. Nppa) genes ([2]; Adropin-treated vs HFpEF mice): decreased expression; also recorded: downregulated
decrease in extracellular matrix remodeling transcripts (Col1a1, Col3a1, Col5a1, Mmp2) ([2]; adropin-treated vs vehicle-treated HFpEF mice): > 2 fold
metabolic genes ([2]; between HFpEF and Adropin groups): no widespread changes
